Assay results taken from BigSolDB 2.1.

COc1ccc(-n2nc(C(N)=O)c3c2C(=O)N(c2ccc(N4CCCCC4=O)cc2)CC3)cc1
solubility (mole fraction)
Conditions | 288.15 K | 293.15 K | 298.15 K | 303.15 K | 308.15 K | 313.15 K | 318.15 K | 323.15 K | 328.15 K
in acetone | 0.00024 | 0.000276 | 0.00032 | 0.000377 | 0.000436 | 0.00051 | 0.000584 | 0.000669 | 0.000754
in ethanol | 0.000112 | 0.000144 | 0.00018 | 0.00022 | 0.000268 | 0.00033 | 0.000402 | 0.000474 | 0.000572
in isopropanol | 6.12e-05 | 7.67e-05 | 9.95e-05 | 0.000133 | 0.000167 | 0.000214 | 0.000271 | 0.00033 | 0.000404
in methanol | 0.000327 | 0.000416 | 0.00053 | 0.000669 | 0.000842 | 0.00104 | 0.00128 | 0.00156 | 0.00188
in water | 9.68e-06 | 1.13e-05 | 1.39e-05 | 1.67e-05 | 1.95e-05 | 2.31e-05 | 2.74e-05 | 3.19e-05 | 3.72e-05
